For this test, the target named is GABAA receptor complex (GRC). Nature of the test: [35S]TBPS binding assay (In Vitro Binding Assay 1). To be noted: rat cortex P2 homogenate; 2 nM [35S]TBPS; 90 min at 25° C. On the procedure: [^35S]TBPS binding assay. The cortex from male Sprague-Dawley rats (weighing 160-200 g) was removed immediately after decapitation and dissected over ice. A P2 homogenate was prepared for binding assay as previously described (Gee, Mol. Pharmacol. 30: 218-225, 1986.). The tissue was homogenized in 0.32 M sucrose (J. T. Baker Chemical Co., Phillipsburg, N.J., USA) with a Teflon-coated pestle, followed by centrifugation at 1,000×g for 10 min. The supernatant was collected and centrifuged at 9,000×g for 20 min. The resultant P2 pellet was resuspended in ice-cold 50 mM sodium potassium phosphate (J. T. Baker) buffer (pH 7.4) containing 200 mM NaCl (J. T. Baker) and used immediately in binding assays. A 2 nM concentration of [^35S]TBPS (86 Ci/mmol; New England Nuclear, Boston, Mass., USA) was incubated with 100 μl of tissue homogenate (10% w/v) in the presence or absence of 5 μM GABA (Sigma Chem. Co., St. Louis, Mo.) and 5 μl aliquots of test drug dissolved in dimethyl sulfoxide (Sigma Chem. Co.) (≦10 μl of solvent used in all assays). At the concentration (≦1%) used, dimethyl sulfoxide had no effect on specific [^35S]TBPS binding. All assays were brought to a final volume of 1 ml with 50 mM sodium potassium phosphate buffer (pH 7.4) containing 200 mM NaCl. Non-specific binding was defined as binding in the presence of 2 μM TBPS (NEN, Boston, Mass.) and accounted for ˜30% of the total binding. Assays were terminated after a 90-min steady-state incubation at 25° C. by rapid filtration through glass fiber filters (no. 32; Schleicher & Schuell, Keene, N.H.). Filter-bound radioactivity was quantified by liquid scintillation spectrophotometry. The data were evaluated by nonlinear regression (GraphPad, Inc., San Diego, Calif.) to obtain IC50 (concentration at which half-maximal inhibition of radioligand occurs) values.

One may read the IC50 as the concentration that inhibits the measured activity by half. The low end stands for greater potency in that assay, the high end for weaker potency in that assay. Consider `C#Cc1ccc(NC=C(C(=O)NCCC)C(=O)c2ccccc2C)cc1` [α-[[(4-ethynylphenyl)amino]methylene]-2-methyl-β-oxo-N-propyl-benzenepropanamide], for which the IC50 turned out to be 20 nM and the “Imax (inhibition of [^35S]TBPS binding)” value is on record as 95%.

Regarding `CCOC(=O)C(=CNc1ccc(C#N)cc1)C(=O)c1ccccc1Cl` [ethyl 2-chloro-α-[[(4-cyanophenyl)-amino]methylene]-β-oxobenzenepropionate], the IC50 turned out to be 60 nM and the “Imax (inhibition of [^35S]TBPS binding)” value is listed as 100%.

`CCCNC(=O)C(=CNc1ccc(C)cc1)C(=O)c1ccccc1C` [2-methyl-α-[[(4-methylphenyl)amino]methylene]-β-oxo-N-propyl-benzenepropanamide]: the IC50 amounted to 100 nM and the “Imax (inhibition of [^35S]TBPS binding)” value is listed as 100%.

`CCOC(=O)C(=CNc1ccc(I)cc1)C(=O)c1ccccc1Cl` [ethyl 2-chloro-α-[[(4-iodophenyl)-amino]methylene]-β-oxobenzenepropionate]: the IC50 was found to be 20 nM and the “Imax (inhibition of [^35S]TBPS binding)” value is 86%.

Consider `C#Cc1ccc(NC=C(C(=O)OCC)C(=O)c2ccccc2Cl)cc1` [ethyl 2-chloro-α-[[(4-ethynylphenyl)-amino]methylene]-β-oxobenzenepropionate], for which the IC50 came out at 10 nM and the “Imax (inhibition of [^35S]TBPS binding)” value came to 95%.

With `CCOC(=O)C(=CNc1ccc(F)cc1)C(=O)c1cccc2ccccc12` [ethyl α-[(4-fluorophenyl)amino]methylene]-β-oxo-1-naphthalenepropionate], the IC50 came out at 200 nM and the “Imax (inhibition of [^35S]TBPS binding)” value is listed as 81%.

Turning to `CCOC(=O)C(=CNc1ccccc1Cl)C(=O)c1ccccc1Cl` [ethyl 2-chloro-α-[[(2-chlorophenyl)-amino]methylene]-β-oxobenzenepropionate], the IC50 was 420 nM and the “Imax (inhibition of [^35S]TBPS binding)” value is recorded as 100%.

(Values after US7825278B2, “Substituted enaminones, their derivatives and uses thereof” (The Regents of the University of California, priority 2004, dated 2010).)
